Source: paper PMC10620772, “Design, synthesis, and biological evaluation of new pyrimidine-5-carbonitrile derivatives as novel anti-cancer, dual EGFR^WT/COX-2 inhibitors with docking studies” (RSC Advances, 2023)

Key:
Assay type in all cases: cell-based, human
KM12 = assay: NCI60 antitumor screening; conditions: 10 μM one-dose
MDA-MB-231/ATCC = assay: NCI60 antitumor screening; conditions: 10 μM one-dose
IGROV1 = assay: NCI60 antitumor screening; conditions: 10 μM one-dose
OVCAR-8 = assay: NCI60 antitumor screening; conditions: 10 μM one-dose
CAKI-1 = assay: NCI60 antitumor screening; conditions: 10 μM one-dose
HS 578T = assay: NCI60 antitumor screening; conditions: 10 μM one-dose
NCI-H460 = assay: NCI60 antitumor screening; conditions: 10 μM one-dose
T-47D = assay: NCI60 antitumor screening; conditions: 10 μM one-dose
HT29 = assay: NCI60 antitumor screening; conditions: 10 μM one-dose
786–0 = assay: NCI60 antitumor screening; conditions: 10 μM one-dose
U251 = assay: NCI60 antitumor screening; conditions: 10 μM one-dose
HCC-2998 = assay: NCI60 antitumor screening; conditions: 10 μM one-dose
SF-268 = assay: NCI60 antitumor screening; conditions: 10 μM one-dose
HCT-15 = assay: NCI60 antitumor screening; conditions: 10 μM one-dose
COLO 205 = assay: NCI60 antitumor screening; conditions: 10 μM one-dose
BT-549 = assay: NCI60 antitumor screening; conditions: 10 μM one-dose
MOLT-4 = assay: NCI60 antitumor screening; conditions: 10 μM one-dose
HCT-116 = assay: NCI60 antitumor screening; conditions: 10 μM one-dose
HOP-62 = assay: NCI60 antitumor screening; conditions: 10 μM one-dose
NCI/ADR-RES = assay: NCI60 antitumor screening; conditions: 10 μM one-dose
MCF7 = assay: NCI60 antitumor screening; conditions: 10 μM one-dose
LOX IMVI = assay: NCI60 antitumor screening; conditions: 10 μM one-dose
SK-MEL-5 = assay: NCI60 antitumor screening; conditions: 10 μM one-dose
OVCAR-3 = assay: NCI60 antitumor screening; conditions: 10 μM one-dose
RPMI-8226 = assay: NCI60 antitumor screening; conditions: 10 μM one-dose
A549/ATCC = assay: NCI60 antitumor screening; conditions: 10 μM one-dose
RXF 393 = assay: NCI60 antitumor screening; conditions: 10 μM one-dose
SK-MEL-28 = assay: NCI60 antitumor screening; conditions: 10 μM one-dose
CCRF-CEM = assay: NCI60 antitumor screening; conditions: 10 μM one-dose
SF-295 = assay: NCI60 antitumor screening; conditions: 10 μM one-dose
UACC-62 = assay: NCI60 antitumor screening; conditions: 10 μM one-dose
TK-10 = assay: NCI60 antitumor screening; conditions: 10 μM one-dose
UO-31 = assay: NCI60 antitumor screening; conditions: 10 μM one-dose
HL-60(TB) = assay: NCI60 antitumor screening; conditions: 10 μM one-dose
OVCAR-5 = assay: NCI60 antitumor screening; conditions: 10 μM one-dose
SN12C = assay: NCI60 antitumor screening; conditions: 10 μM one-dose
NCI-H322M = assay: NCI60 antitumor screening; conditions: 10 μM one-dose
MDA-MB-435 = assay: NCI60 antitumor screening; conditions: 10 μM one-dose
A498 = assay: NCI60 antitumor screening; conditions: 10 μM one-dose
MDA-MB-468 = assay: NCI60 antitumor screening; conditions: 10 μM one-dose
SF-539 = assay: NCI60 antitumor screening; conditions: 10 μM one-dose
SNB-75 = assay: NCI60 antitumor screening; conditions: 10 μM one-dose
SR = assay: NCI60 antitumor screening; conditions: 10 μM one-dose
NCI-H522 = assay: NCI60 antitumor screening; conditions: 10 μM one-dose
EKVX = assay: NCI60 antitumor screening; conditions: 10 μM one-dose
NCI60 cell lines panel = assay: NCI60 antitumor screening, full panel; conditions: 10 μM one-dose, mean over NCI60
Method: The National Cancer Institute (NCI), Bethesda, Maryland, United States, selected all of the novel synthesized compounds (2b–d, 3a–d and 4a–p) for in vitro antitumor screening at a single concentration of 10 μM toward the NCI60 cell lines panel covering leukaemia, non-small cell lungs, colon, central nervous system (CNS), melanoma, ovarian, renal, prostate, and breast cancer cells.[32–35] The data were reported as a mean graph of the percent growth of the treated cell lines and expressed as percentage growth inhibition (GI%) in Table 1 and ESI 1.
(2) The molar concentration of the compound responsible for total growth inhibition, also known as total growth inhibition (TGI).
Regarding subpanel selectivity toward certain cancer type, the method of determining a compound's selectivity index is to divide the full panel MG-MID (μM) value by each single subpanel. Values above six indicate high selectivity against the subpanel; moderate selectivity is denoted by values between three and six. Conversely, compounds are termed nonselective if their selectivity is less than three.[30,37]

SW-620 = assay: NCI60 antitumor screening; conditions: 10 μM one-dose
SK-MEL-2 = assay: NCI60 antitumor screening; conditions: 10 μM one-dose
SK-OV-3 = assay: NCI60 antitumor screening; conditions: 10 μM one-dose
OVCAR-4 = assay: NCI60 antitumor screening; conditions: 10 μM one-dose
UACC-257 = assay: NCI60 antitumor screening; conditions: 10 μM one-dose
K-562 = assay: NCI60 antitumor screening; conditions: 10 μM one-dose
PC-3 = assay: NCI60 antitumor screening; conditions: 10 μM one-dose
MALME-3M = assay: NCI60 antitumor screening; conditions: 10 μM one-dose
SNB-19 = assay: NCI60 antitumor screening; conditions: 10 μM one-dose
HOP-92 = assay: NCI60 antitumor screening; conditions: 10 μM one-dose
ACHN = assay: NCI60 antitumor screening; conditions: 10 μM one-dose
NCI-H23 = assay: NCI60 antitumor screening; conditions: 10 μM one-dose
DU-145 = assay: NCI60 antitumor screening; conditions: 10 μM one-dose
M14 = assay: NCI60 antitumor screening; conditions: 10 μM one-dose
NCI-H226 = assay: NCI60 antitumor screening; conditions: 10 μM one-dose

For `N#Cc1c(-c2ccc(F)cc2)nc(SCc2ccc(F)cc2)nc1N1CCOCC1` [4b, 2-((4-Fluorobenzyl)thio)-4-(4-fluorophenyl)-6-morpholinopyrimidine-5-carbonitrile], the GI% (KM12) was 12.78%, the GI% (MDA-MB-231/ATCC) was 49.52% and the GI% (IGROV1) was “— (GI% < 10)”. For the same compound, the GI% (OVCAR-8) was 45.16%, the GI% (CAKI-1) was 69.32% and the GI% (HS 578T; Table 1) was 74.34%. The GI% (NCI-H460) was 26.13%, the GI% (T-47D) was 26.75% and the GI% (HT29) was “— (GI% < 10)”. The GI% (786–0; Table 1) was 75.34%, the GI% (U251) was 52.85% and the GI% (HCC-2998) was 12.64%. For the same compound, the GI% (SF-268) was 56.58%, the GI% (HCT-15) was 20.05% and the GI% (COLO 205) was “— (GI% < 10)”. The GI% (BT-549) was 35.72%, the GI% (MOLT-4) was “— (GI% < 10)” and the GI% (HCT-116) was 33.96%. The GI% (HOP-62; Table 1) was 75.65%, the GI% (NCI/ADR-RES) was 36.47% and the GI% (MCF7) was 36.26%. For the same compound, the GI% (LOX IMVI) was 23.57%, the GI% (SK-MEL-5) was 25.68% and the GI% (OVCAR-3) was 24.80%. The GI% (RPMI-8226) was “— (GI% < 10)”, the GI% (A549/ATCC) was 31.03% and the GI% (RXF 393) was 58.43%. For the same compound, the GI% (RXF 393; Table 1) was “— (GI value > 70%)”, the GI% (SK-MEL-28) was 14.16% and the GI% (CCRF-CEM) was 12.89%. It also gave a GI% (SF-295) of 63.10%, a GI% (UACC-62) of 30.66% and a GI% (TK-10) of 22.42%. For the same compound, the GI% (UO-31) was 13.97%, the GI% (HL-60(TB)) was 15.01% and the GI% (OVCAR-5) was 16.89%. For the same compound, the GI% (SN12C) was 27.12%, the GI% (NCI-H322M) was 21.55% and the GI% (MDA-MB-435) was “— (GI% < 10)”. The GI% (A498) was 28.08%, the GI% (MDA-MB-468) was 37.89% and the GI% (SF-539) was 50.95%. The GI% (SF-539; Table 1) was “— (GI value > 70%)”, the GI% (SNB-75; Table 1) was 82.51% and the GI% (SR; Table 1) was “— (GI value > 70%)”. For the same compound, the GI% (NCI-H522) was 45.02%, the GI% (EKVX) was 39.92% and the “Mean GI%” value (NCI60 cell lines panel) was 34.42%. It also gave a GI% (SW-620) of 14.48%, a GI% (SK-MEL-2) of 21.29% and a GI% (SK-OV-3) of 60.37%. For the same compound, the GI% (OVCAR-4) was 39.53%, the GI% (OVCAR-4; Table 1) was “— (GI value > 70%)” and the GI% (UACC-257) was 22.89%. The GI% (K-562) was 16.20%, the GI% (K-562; Table 1) was “— (GI value > 70%)” and the GI% (PC-3) was 28.37%. The GI% (MALME-3M) was 41.38%, the GI% (SNB-19) was 56.32% and the GI% (HOP-92) was 65.67%. It also gave a GI% (ACHN) of 53.35%, a GI% (NCI-H23) of 28.19% and a GI% (DU-145) of 22.16%. For the same compound, the GI% (M14) was “— (GI% < 10)”, the GI% (NCI-H226) was 51.64% and the GI% (NCI-H226; Table 1) was “— (GI value > 70%)”.
For `Cc1ccc(CSc2nc(Cl)c(C#N)c(-c3ccc(F)cc3)n2)cc1` [3d, 4-Chloro-6-(4-fluorophenyl)-2-((4-methylbenzyl)thio)pyrimidine-5-carbonitrile], the GI% (KM12) was 19.05%, the GI% (MDA-MB-231/ATCC) was “— (GI% < 10)” and the GI% (IGROV1) was “— (GI% < 10)”. For the same compound, the GI% (OVCAR-8) was “— (GI% < 10)”, the GI% (CAKI-1) was 16.99% and the GI% (HS 578T) was “— (GI% < 10)”. The GI% (NCI-H460) was “— (GI% < 10)”, the GI% (T-47D) was 46.84% and the GI% (HT29) was 51.51%. The GI% (786–0) was 12.30%, the GI% (U251) was 15.75% and the GI% (HCC-2998) was “— (GI% < 10)”. The GI% (SF-268) was 12.95%, the GI% (HCT-15) was 24.97% and the GI% (COLO 205) was “— (GI% < 10)”. For the same compound, the GI% (BT-549) was 18.08%, the GI% (MOLT-4) was 29.08% and the GI% (HCT-116) was 25.73%. For the same compound, the GI% (HOP-62) was “— (GI% < 10)”, the GI% (NCI/ADR-RES) was 14.93% and the GI% (MCF7) was 12.55%. The GI% (LOX IMVI) was “— (GI% < 10)”, the GI% (SK-MEL-5) was 15.98% and the GI% (OVCAR-3) was “— (GI% < 10)”. For the same compound, the GI% (RPMI-8226) was 25.03%, the GI% (A549/ATCC) was 16.81% and the GI% (RXF 393) was 12.49%. The GI% (SK-MEL-28) was “— (GI% < 10)”, the GI% (CCRF-CEM) was 29.71% and the GI% (SF-295) was 11.51%. The GI% (UACC-62) was 17.58%, the GI% (TK-10) was “— (GI% < 10)” and the GI% (UO-31) was 17.01%. The GI% (HL-60(TB)) was 51.77%, the GI% (OVCAR-5) was “— (GI% < 10)” and the GI% (SN12C) was 27.59%. For the same compound, the GI% (NCI-H322M) was “— (GI% < 10)”, the GI% (MDA-MB-435) was “— (GI% < 10)” and the GI% (A498) was “— (GI% < 10)”. For the same compound, the GI% (MDA-MB-468) was “— (GI% < 10)”, the GI% (SF-539) was 15.58% and the GI% (SNB-75) was “— (GI% < 10)”. The GI% (SR) was “— (GI% < 10)”, the GI% (NCI-H522) was 29.73% and the GI% (EKVX) was 20.92%. For the same compound, the “Mean GI%” value (NCI60 cell lines panel) was 12.62%, the GI% (SW-620) was 11.21% and the GI% (SK-MEL-2) was “— (GI% < 10)”. For the same compound, the GI% (SK-OV-3) was “— (GI% < 10)”, the GI% (OVCAR-4) was 14.97% and the GI% (UACC-257) was “— (GI% < 10)”. For the same compound, the GI% (K-562) was 42.83%, the GI% (PC-3) was 35.47% and the GI% (MALME-3M) was “— (GI% < 10)”. The GI% (SNB-19) was “— (GI% < 10)”, the GI% (HOP-92) was 34.25% and the GI% (ACHN) was “— (GI% < 10)”. For the same compound, the GI% (NCI-H23) was “— (GI% < 10)”, the GI% (DU-145) was 18.41% and the GI% (M14) was “— (GI% < 10)”. The GI% (NCI-H226) was 37.93%.
